Laboratory results from PubChem BioAssay AID256 (DTP/NCI, 2004).
Values joined by “and” are separate entries in the source; they are usually repeats but may differ in a detail not shown here. Identical values can stand only once. Toxic doses and inconclusive results are not listed. Rule for the calls: active = survival T/C of 150% or more; inactive = T/C below 125% in these data. Residues, ends and D or L forms follow the SMILES beside them. *: point of attachment. Cbz = O=C(OCc1ccccc1)*; Bn = c1ccc(C*)cc1; βAla = NCCC(=O)O

System: CD2F1 mice, L1210 leukemia ip, survival T/C
Assay: NCI In Vivo Anticancer Drug Screen. Data for tumor model L1210 Leukemia (intraperitoneal) in CD2F1 (CDF1) mice
Conditions: endpoint: mean survival time, higher = longer survival
Outline: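 Antitumor effect is scored in animals hosting a serially transplanted tumor. Values compare compound-dosed animals against vehicle-only controls as a simple quotient.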

[1] = dose: 100.0 mg/kg/injection, schedule: Q01DX001 (ip), vehicle: saline
[2] = dose: 200.0 mg/kg/injection, schedule: Q01DX001 (ip), vehicle: saline
[3] = dose: 400.0 mg/kg/injection, schedule: Q01DX001 (ip), vehicle: saline
[4] = dose: 100.0 mg/kg/injection, schedule: Q04DX003 (ip), vehicle: saline with Tween-80
[5] = dose: 200.0 mg/kg/injection, schedule: Q04DX003 (ip), vehicle: saline with Tween-80
[6] = dose: 400.0 mg/kg/injection, schedule: Q04DX003 (ip), vehicle: saline with Tween-80
[7] = dose: 100.0 mg/kg/injection, schedule: Q04DX002 (ip), vehicle: saline with Tween-80
[8] = dose: 200.0 mg/kg/injection, schedule: Q04DX002 (ip), vehicle: saline with Tween-80
[9] = dose: 400.0 mg/kg/injection, schedule: Q04DX002 (ip), vehicle: saline with Tween-80
[10] = dose: 100.0 mg/kg/injection, schedule: Q01DX009 (ip), vehicle: saline with Tween-80
[11] = dose: 200.0 mg/kg/injection, schedule: Q01DX009 (ip), vehicle: saline with Tween-80

Measured: T/C

CCOC(=O)CC(O)CC (stereo unspecified)
inactive: dose: 100.0 mg/kg/injection, schedule: Q04DX002 (ip), vehicle: saline 95 % of control | dose: 200.0 mg/kg/injection, schedule: Q04DX002 (ip), vehicle: saline 95 % of control | dose: 400.0 mg/kg/injection, schedule: Q04DX002 (ip), vehicle: saline 95 % of control

CC1(C)/C(=N/Nc2ccc([N+](=O)[O-])cc2[N+](=O)[O-])C=Cc2ccccc21
inactive: dose: 12.5 mg/kg/injection, schedule: Q01DX009 (ip), vehicle: other 105 % of control | dose: 25.0 mg/kg/injection, schedule: Q01DX009 (ip), vehicle: other 94 % of control | dose: 100.0 mg/kg/injection, schedule: Q01DX009 (ip), vehicle: other 90 % of control | dose: 200.0 mg/kg/injection, schedule: Q01DX009 (ip), vehicle: other 94 % of control

NC(=O)/C=C/C(=O)c1c(Cl)cccc1Cl
inactive: dose: 0.78 mg/kg/injection, schedule: Q01DX009 (ip), vehicle: saline with Tween-80 98 % of control | dose: 0.79 mg/kg/injection, schedule: Q01DX009 (ip), vehicle: saline with Tween-80 97 % of control | dose: 1.56 mg/kg/injection, schedule: Q01DX009 (ip), vehicle: saline with Tween-80 95 % of control and 97 % of control | dose: 3.12 mg/kg/injection, schedule: Q01DX009 (ip), vehicle: saline with Tween-80 91 % of control and 104 % of control | dose: 6.25 mg/kg/injection, schedule: Q01DX009 (ip), vehicle: saline with Tween-80 97 % of control and 101 % of control | dose: 12.5 mg/kg/injection, schedule: Q01DX009 (ip), vehicle: saline with Tween-80 98 % of control and 100 % of control

Nc1nc2ncc(CSc3ccc(C(=O)NC(CCC(=O)O)C(=O)O)cc3)nc2c(=O)[nH]1 (stereo unspecified)
inactive: dose: 1.0 mg/kg/injection, schedule: Q01DX009 (ip), vehicle: sodium bicarbonate 107 % of control | dose: 2.0 mg/kg/injection, schedule: Q01DX009 (ip), vehicle: saline with Tween-80 101 % of control | dose: 2.0 mg/kg/injection, schedule: Q01DX009 (ip), vehicle: sodium bicarbonate 111 % of control | dose: 4.0 mg/kg/injection, schedule: Q01DX009 (ip), vehicle: saline with Tween-80 101 % of control | dose: 4.0 mg/kg/injection, schedule: Q01DX009 (ip), vehicle: sodium bicarbonate 124 % of control | dose: 5.4 mg/kg/injection, schedule: Q01DX009 (ip), vehicle: sodium bicarbonate 90 % of control | dose: 8.0 mg/kg/injection, schedule: Q01DX009 (ip), vehicle: saline with Tween-80 104 % of control | dose: 8.0 mg/kg/injection, schedule: Q01DX009 (ip), vehicle: sodium bicarbonate 97 % of control | dose: 12.0 mg/kg/injection, schedule: Q01DX009 (ip), vehicle: sodium bicarbonate 95 % of control | dose: 16.0 mg/kg/injection, schedule: Q01DX009 (ip), vehicle: saline with Tween-80 97 % of control | dose: 16.0 mg/kg/injection, schedule: Q01DX009 (ip), vehicle: sodium bicarbonate 113 % of control | dose: 32.0 mg/kg/injection, schedule: Q01DX009 (ip), vehicle: saline with Tween-80 101 % of control

Cc1ccc([N+](=O)[O-])cc1NC(=O)Nc1ncccn1
inactive: dose: 50.0 mg/kg/injection, schedule: Q01DX009 (ip), vehicle: Klucel (hydroxypropylcellulose) (HPC) 93 % of control | dose: 100.0 mg/kg/injection, schedule: Q01DX009 (ip), vehicle: Klucel (hydroxypropylcellulose) (HPC) 96 % of control | dose: 200.0 mg/kg/injection, schedule: Q01DX009 (ip), vehicle: Klucel (hydroxypropylcellulose) (HPC) 93 % of control

CC12CCC(=O)C=C1CCC1C2CCC2(C)C(C(=O)Cn3c(=O)[nH]cc(F)c3=O)CCC12 (stereo unspecified)
inactive: dose: 12.5 mg/kg/injection, schedule: Q04DX003 (ip), vehicle: Klucel (hydroxypropylcellulose) (HPC) 94 % of control | dose: 25.0 mg/kg/injection, schedule: Q04DX003 (ip), vehicle: Klucel (hydroxypropylcellulose) (HPC) 94 % of control | dose: 50.0 mg/kg/injection, schedule: Q04DX003 (ip), vehicle: Klucel (hydroxypropylcellulose) (HPC) 97 % of control | dose: 100.0 mg/kg/injection, schedule: Q04DX003 (ip), vehicle: Klucel (hydroxypropylcellulose) (HPC) 91 % of control | dose: 200.0 mg/kg/injection, schedule: Q04DX003 (ip), vehicle: Klucel (hydroxypropylcellulose) (HPC) 95 % of control

O=S(=O)(O)C(I)S(=O)(=O)O
inactive: [1] 97 % of control | [2] 102 % of control | [3] 114 % of control

CC12CCc3c(ccc4cc(O)ccc34)C1CCC2=O (stereo unspecified)
inactive: dose: 100.0 mg/kg/injection, schedule: Q04DX003 (ip), vehicle: saline 100 % of control | dose: 200.0 mg/kg/injection, schedule: Q04DX003 (ip), vehicle: saline 97 % of control | dose: 400.0 mg/kg/injection, schedule: Q04DX003 (ip), vehicle: saline 97 % of control

CCOC(=O)N1C2CCC(C2)N1C(=O)OCC
inactive: [4] 100 % of control | [5] 100 % of control | [6] 87 % of control

NC(=S)N/N=C\c1nccc2c(C(F)(F)C(F)(F)C(F)(F)F)cccc12
inactive: [7] 93 % of control | [8] 96 % of control | [9] 96 % of control

COC(=O)C1(C)CCCC2(C)C1CCC13OC(=O)C(C(C)C)(CC21)C3O (stereo unspecified)
inactive: [10] 94 % of control | [11] 88 % of control | dose: 400.0 mg/kg/injection, schedule: Q01DX009 (ip), vehicle: saline with Tween-80 92 % of control

CC(C)OC(=O)N(C(=O)OC(C)C)c1ccc(Cl)cc1
inactive: [7] 97 % of control | [8] 94 % of control | [9] 102 % of control

CCOC(=O)S(=O)(=O)c1ccc(C)cc1
inactive: dose: 100.0 mg/kg/injection, schedule: Q01DX009 (ip), vehicle: acetone 101 % of control | dose: 200.0 mg/kg/injection, schedule: Q01DX009 (ip), vehicle: acetone 109 % of control | dose: 400.0 mg/kg/injection, schedule: Q01DX009 (ip), vehicle: acetone 114 % of control

COC(=O)C(CSCc1ccccc1)NC(=O)C(CSCc1ccccc1)NC(=O)CCNC(=O)OCc1ccccc1 (stereo unspecified) ({Cbz-βAla}-Cys(Bn)-Cys(Bn)-OMe; configuration not given here)
inactive: dose: 25.0 mg/kg/injection, schedule: Q01DX005 (ip), vehicle: water 103 % of control | dose: 50.0 mg/kg/injection, schedule: Q01DX005 (ip), vehicle: water 98 % of control | dose: 100.0 mg/kg/injection, schedule: Q01DX005 (ip), vehicle: water 106 % of control | dose: 200.0 mg/kg/injection, schedule: Q01DX005 (ip), vehicle: water 103 % of control | dose: 400.0 mg/kg/injection, schedule: Q01DX005 (ip), vehicle: water 105 % of control

COC(=O)C(=O)Cc1cc(OC)cc(=O)o1
inactive: [4] 100 % of control | [5] 101 % of control | [6] 95 % of control

O=C(N/N=C/c1ccc(O)cc1)c1ccncc1
inactive: dose: 50.0 mg/kg/injection, schedule: Q04DX002 (ip), vehicle: saline with Tween-80 95 % of control | [7] 91 % of control | [8] 100 % of control | [9] 88 % of control

O=C(CSCC(=O)c1ccc(Br)cc1)c1ccc(Br)cc1
inactive: [1] 112 % of control | [2] 98 % of control | [3] 101 % of control

CC(=O)Nc1ncc2ccccc2c1-c1ccc(NC(=O)CN(CCO)CCO)cc1
inactive: dose: 25.0 mg/kg/injection, schedule: Q04DX003 (ip), vehicle: other 104 % of control | dose: 50.0 mg/kg/injection, schedule: Q04DX003 (ip), vehicle: other 108 % of control | dose: 100.0 mg/kg/injection, schedule: Q04DX003 (ip), vehicle: other 100 % of control | dose: 200.0 mg/kg/injection, schedule: Q04DX003 (ip), vehicle: other 96 % of control | dose: 400.0 mg/kg/injection, schedule: Q04DX003 (ip), vehicle: other 104 % of control

NC(=O)C(NCc1ccccc1)c1ccccc1 (stereo unspecified)
inactive: [4] 94 % of control | [5] 99 % of control

CCN(CC)C(=O)[S-].CCN(CC)C(=O)[S-].[Ni+2]
inactive: dose: 100.0 mg/kg/injection, schedule: Q01DX001 (ip), vehicle: saline with Tween-80 94 % of control | dose: 200.0 mg/kg/injection, schedule: Q01DX001 (ip), vehicle: saline with Tween-80 98 % of control | dose: 400.0 mg/kg/injection, schedule: Q01DX001 (ip), vehicle: saline with Tween-80 102 % of control

N#CCC(=O)N/N=C/c1ccccc1
inactive: [10] 91 % of control | [11] 86 % of control
